Experiments:
[1] = Non-conditioned passive avoidance test in rats (antianxiety); type: in vivo, Wistar strain rats; design: key: Active: the number of shocks received by the test group is significantly higher than the control group by the Mann-Witney U test; settings: 25 mg/kg, oral or intraperitoneal
Protocol: The antianxiety effects of the novel compounds of the present invention have been assessd in a non-conditioned passive avoidance procedure described by J. R. Vogel, B. Beer and D. E. Clody, "A Simple and Reliable Conflict Procedure for Testing Antianxiety Agents", Psychopharmacologia, 21, 1-7 (1971). A conflict situation was induced in rats by a modification of this method.
Groups of 6 naive, Wistar strain rats, weighing 200-240 g each, were deprived of water for 48 hours and food for 24 hours. The test compounds were administered in single or graded, oral or intraperitoneal doses, suspended in a 2% starch vehicle containing 0.5% v/v polyethylene glycol and one drop of Polysorbate 80. Control animals received the vehicle alone. At 30 or 60 minutes each rat was placed in an individual plexiglass chamber. Water was available ad libitum from a tap located in the rear of the chamber. A 0.7 milliampere DC shocking current was established between the stainless steel grid floor and the tap. After 20 licks of non-shocked drinking, a shock was delivered for 2 seconds and then further shocks were delivered on a ratio of one shock for 2 seconds for every 20 licks. This was continued for a total of 3 minutes. The number of shocks taken by each rat during the 3 minute interval was recorded and compared to a control group.

[2] = Hypoxic Survival Test; type: in vivo, Royal Hart mice; settings: 50 mg/kg i.p., 10% oxygen, 5 minutes
Protocol: Groups of 20 Royal Hart mice (6 weeks of age) are injected intraperitoneally with 10, 50 or 100 mg/kg of test compound 30 minutes prior to placing them in a hypoxic mixture (10% oxygen in 90% […]) and measuring survival after 5 minutes.
A separate group of 20 mice is injected intraperitoneally with saline solution (0.01 cc/g of body weight) and processed as described above.
Still another group of 20 mice is injected intraperitoneally with 0.125 mg/kg of physostigmine and processed as described above.

[3] = Passive Avoidance Anoxic Induced Amnesia Test; type: in vivo, Swiss-Webster, middle-aged mice; settings: 100 mg/kg i.p., 30 minutes prior to training and testing; over saline control
From the text: Another in vivo test associated with decreased neural function in mammals is the Passive Avoidance Anoxic Induced Amnesia Test. This test is used to determine the attenuation of anoxic induced amnesia in mice treated with drug, as compared to saline treated control animals with no drug.
A shock-motivated, single trial, step-through passive avoidance procedure is used. Groups of 25 Swiss-Webster, middle-aged mice (9 months of age) are placed singly in the front chamber of a 2-chamber box and are allowed to voluntarily cross into the rear chamber. As soon as the mouse enters the rear chamber, a guillotine door automatically traps the animal and a mild electric shock (0.4 mA for 4 seconds) is delivered to its feet. Following the foot shock, the mice are initially placed in an anoxic environment (0% oxygen) for 12 seconds, which quickly induces unconsciousness. They are then placed in a hypoxic environment (15% oxygen) for four minutes which prolongs the oxygen deprived state, maintaining unconsciousness. All testing is performed 24 hours later, and in all cases the mice appear fully recovered from the previous anoxic/hypoxic treatment. All test compounds are administered intraperitoneally at a dose of 10-100 mg/kg, 30 minutes prior to training and testing. […]
The latency to enter the rear chamber is recorded for both training and testing. […]

[4] = Hypotensive activity in spontaneously hypertensive rats; type: in vivo, spontaneously hypertensive rats of the Okamoto strain; settings: 100 mg/kg by gavage, two doses 24 hours apart, measured at 28 hours after the initial dose; one or two rats
Protocol: The novel compounds of the present invention are active hypotensive agents and were tested for hypotensive activity by the method of P. S. Chan and D. Poorvin, Clinical and Experimental Hypertension, 1 (6), 817-830 (1979). […] One to 3 rats are used per test compound. A rat is dosed by gavage with a test compound suspended in 2% pre-boiled starch at a concentration of 50 mg/ml, at a dose of 100 mg/kg of body weight or less, with 0.9% sodium chloride loading at a dose of 25 ml/kg of body weight. A second identical dose of the test compound, without sodium chloride loading is given 24 hours later. At 28 hours after the initial dose the mean arterial blood pressure is measured by the method of Chan and Poorvin (see above). The procedure is repeated in a second and third rat when necessary. The results of this test on representative compounds of the present invention which were obtained using one or two rats, at a dose of 100 mg/kg of body weight appear below in Table I.

Compound	Result (non-conditioned passive avoidance) [1]	% Survivors [2] [%]	% Improvement [3] [%]	Mean Arterial Blood Pressure [4]
N#Cc1c(N2CCN(Cc3cccc(Cl)c3)CC2)nn2c(-c3ccccc3)ccnc12 [2-[4-[(3-Chlorophenyl)methyl]-1-piperazinyl]-7-phenylpyrazolo[1,5-a]pyrimidine-3-carbonitrile]	Active	–	–	–
N#Cc1c(N2CCN(Cc3ccccc3)CC2)nn2c(-c3cccc(C(F)(F)F)c3)ccnc12 [2-[4-(Phenylmethyl)-1-piperazinyl]-7-[3-(trifluoromethyl)phenyl]pyrazolo[1,5-a]pyrimidine-3-carbonitrile]	–	52	44	–
Cc1cc(-c2ccccc2)n2nc(N3CCN(Cc4ccccc4)CC3)c(C#N)c2n1 [5-Methyl-7-phenyl-2-[4-(phenylmethyl)-1-piperazinyl]-pyrazolo[1,5-a]pyrimidine-3-carbonitrile]	Active	–	–	131 mm of mercury
N#Cc1c(N2CCOCC2)nn2c(-c3cccc(C(F)(F)F)c3)ccnc12 [2-(4-Morpholinyl)-7-[3-(trifluoromethyl)phenyl]pyrazolo[1,5-a]pyrimidine-3-carbonitrile]	Active	–	–	142 mm of mercury
